According to US20230094176A1, “COMPOUNDS AND METHODS FOR IMPROVING IMPAIRED ENDOGENOUS FIBRINOLYSIS USING HISTONE DEACETYLASE INHIBITORS” (Cereno Scientific AB, priority 2011, published 2023):
Like-named read-outs stand apart in the source and are kept apart here.

Experiments:
[1] = cited from earlier work
t-PA mRNA in HUVECs = assay: C100: dose giving a 100% increase of t-PA mRNA in HUVEC (24 h); format: cell-based, human
Method: HUVECs are treated with different concentrations of first generation hydroxamates (TSA), second generation hydroxamates (Givinostat, Vorinostat, Belinostat, Panobinostat, SB939, PCI24781), benzamides (Mocetinostat, Entinostat) or short chain fatty acids (SCFA, Butyrate, Phenylbutyrate) for 24 h and t-PA mRNA was measured. The doses giving a 100% increase of t-PA mRNA (C100) was determined and compared to the maximum plasma concentration (Cmax) achieved when the maximum tolerated dose (MTD) of each substance is administered to humans, by dividing the C100 with the Cmax. […] In the table below the values for MTD and Cmax are from the following references (mentioned in the same order as in the table): Steele, N. L. et al Cancer Chemother Pharmacol 67(6):1273-9 (2011), Kelly, K. K. et al J Clin Oncol 23:3923-3931 (2005), Furlan, A. et al Mol Med 17(5-6) 353-362 (2011), Fukutomi, A. et al Invest New Drugs 2011 Apr. 12, Yong, W. P. et al Ann Oncol 22(11) 2516-22 (2011), Garcia-Manero, G. et al. Blood 112: 981-989 (2008), Ryan, Q. C. et al J Clin Oncol 23(17): 3912-3922 (2005), Edelman, M. J. et al Cancer Chemother Pharmacol 51: 439-444, http://www.drugs.com/pro/buphenyl.html *Butyrate was administered in the prodrug form tributyrin.

[2] = tested on: TNF-a suppressed t-PA mRNA in HUVECs; assay: TNF-alpha suppression of t-PA mRNA in HUVEC: anti-inflammatory substances versus Givinostat; format: cell-based, human
Method: HUVECs were treated with TNF-alpha (TNF-a) for 1 h and then optimal concentrations of the anti.inflammatory substances acetylsalicylic acid (ASA, 1 mM) and ibuprofen (IBU, 1 mM) was added. Givinostat was also added to the cells for comparison. Cells were harvested and t-PA mRNA levels analysed according to example 1.

[3] = tested on: t-PA mRNA in endothelial cells; assay: VPA dose-response on t-PA in the absence or presence of high TNF-alpha (10 ng/ml); format: cell-based, human
Method: In an attempt to mimic the potentially highly inflamed conditions in the local microenvironment surrounding an atherosclerotic plaque, endothelial cells were exposed to a high concentration (10 ng/ml) of TNF-alpha for 24 hours and then VPA was added for an additional 24 h. Cells were treated and mRNA prepared as described in example 1.

patients with epilepsy = conditions: cited from earlier work
[4] = maximum plasma concentration when the MTD is administered to humans

SMILES	Cmax [1, 4]	Cmax (ng/ml) [1, 4]	C100 tPA (t-PA mRNA in HUVECs)	MTD ([1]; humans, literature)	Cmax (ng/ml) ([1]; in vivo)	also measured
O=C(/C=C/c1cccc(S(=O)(=O)Nc2ccccc2)c1)NO [Belinostat]	4000 nM	~1400 ng/mL	0.2 µM	–	–	MTD ([1]; bidaily, oncology treatment or trials): 1000 mg bidaily
CCN(CC)Cc1ccc2cc(COC(=O)Nc3ccc(C(=O)NO)cc3)ccc2c1.Cl [Givinostat]	650 nM	300 ng/mL	0.05 µM	200 mg	–	MTD ([1]; once daily, in healthy volunteers): 200 mg once daily; increase of t-PA ([2]; HUVEC treated with TNF-a): 9 fold; effect on TNF-a mediated suppression of t-PA expression ([2]; HUVEC, TNF-a 1 h then substance, ASA 1 mM, IBU 1 mM): completely reverse
Nc1ccccc1NC(=O)c1ccc(CNc2nccc(-c3cccnc3)n2)cc1 [Mocetinostat]	–	–	0.1 µM	–	200 ng/mL	Cmax ([1]; in vivo): 500 nM
CCCC(CCC)C(=O)O [VPA, valproic acid]	–	–	–	–	–	maximum efficacy in inducing t-PA ([3]; TNF-alpha (10 ng/ml) treated cells): about 50 fold; maximum efficacy in inducing t-PA ([3]; control cells (no TNF-alpha)): about 10 fold; lowering of the risk of atherothrombotic events (patients with epilepsy; patients with epilepsy (Olesen et al 2010)): up to 40%; plasma levels typically obtained during anticonvulsive treatment (patients with epilepsy; patients, anticonvulsive VPA treatment): 350000 to 850000 nM
O=C(CCCCCCC(=O)Nc1ccccc1)NO [Vorinostat]	1100 nM	–	0.1 µM	200 mg b.i.d	300 ng/mL	MTD ([1]; once daily, oncology treatment or trials): 400 mg once daily
